Experimental data from US9371290B2, “Pyridazinone compounds” (BIOTIE THERAPIES CORPORATION, priority 2011, dated 2016).

What was measured:
[1] = target: T1, Recombinant human VAP-1 SSAO (Homo sapiens, UniProt Q16853); assay: In vitro inhibition of VAP-1 SSAO activity (coupled colorimetric method, benzylamine substrate); type: biochemical; details: CHO cell lysate, 1 mM benzylamine, read-out: VAP-1 SSAO Inhibitory activity IC50
T1 construct: made in house; host or cells: Chinese Hamster Ovary (CHO) cells; clarified NP40 cell lysate used directly
T1 sequence (Q16853 1-763): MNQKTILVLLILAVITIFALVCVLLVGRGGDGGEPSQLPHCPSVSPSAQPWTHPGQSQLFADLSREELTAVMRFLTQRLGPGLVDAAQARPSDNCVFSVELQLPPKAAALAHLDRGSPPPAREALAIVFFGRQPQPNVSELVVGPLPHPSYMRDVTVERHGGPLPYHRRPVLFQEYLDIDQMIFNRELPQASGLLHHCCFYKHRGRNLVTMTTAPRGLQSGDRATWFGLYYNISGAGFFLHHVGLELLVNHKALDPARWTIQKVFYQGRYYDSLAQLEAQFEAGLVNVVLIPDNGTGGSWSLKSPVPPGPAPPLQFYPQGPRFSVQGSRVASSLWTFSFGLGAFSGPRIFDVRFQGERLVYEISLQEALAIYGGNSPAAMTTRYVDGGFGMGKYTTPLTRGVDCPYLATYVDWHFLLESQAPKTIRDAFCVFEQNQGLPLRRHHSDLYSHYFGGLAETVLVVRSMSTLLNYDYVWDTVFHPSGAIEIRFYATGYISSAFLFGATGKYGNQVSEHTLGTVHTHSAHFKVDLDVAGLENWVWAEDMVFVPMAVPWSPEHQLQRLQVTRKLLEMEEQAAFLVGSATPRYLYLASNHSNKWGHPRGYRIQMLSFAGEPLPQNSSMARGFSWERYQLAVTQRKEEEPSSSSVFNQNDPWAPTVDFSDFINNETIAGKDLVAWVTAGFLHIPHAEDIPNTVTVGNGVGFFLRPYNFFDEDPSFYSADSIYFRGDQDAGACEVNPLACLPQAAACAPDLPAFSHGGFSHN
Description: VAP-1 SSAO activity was measured using the coupled colorimetric method essentially as described for monoamine oxidase and related enzymes (Holt, A., et al., Anal. Biochem. 244:384-392 (1997)). Recombinant human VAP-1 SSAO expressed in Chinese Hamster Ovary (CHO) cells was used as a source of VAP-1 SSAO for activity measurements. Native CHO cells have negligible SSAO activity. These cells and their culture have previously been described (Smith, D. J., et al., J. Exp. Med. 188:17-27 (1998)). A cell lysate was prepared by suspending approximately 3.6×10^8 cells in 25 ml lysis buffer (150 mM NaCl, 10 mM Tris-Base pH 7.2, 1.5 mM MgCl2, 1% NP40) and incubating at 4° C. overnight on a rotating table. The lysate was clarified by centrifugation at 18 000 g for 5 min at room temperature and the supernatant used directly in the assay. The VAP-1 SSAO assay was performed in 96 well microtitre plates as follows. To each well was added a predetermined amount of inhibitor if required. The amount of inhibitor varied in each assay but was generally at a final concentration of between 1 nM and 50 μM. Controls lacked inhibitor. The inhibitor was in a total volume of 20 μl in water. The following reagents were then added. 0.2 M potassium phosphate buffer pH 7.6 to a total reaction volume of 200 μl, 50 μl of freshly made chromogenic solution containing 1 mM vanillic acid, 500 μM 4-aminoantipyrine and 8 U/ml horseradish peroxidase and an amount of CHO cell lysate containing VAP-1 SSAO that caused a change of 0.6 A490 per h. This was within the linear response range of the assay. The plates were incubated for 30 min at 37° C. and the background absorbance measured at 490 nm using a Wallac Victor II multilabel counter. To initiate the enzyme reaction 20 μl 10 mM benzylamine (final concentration=1 mM) was added and the plate incubated for 1 h at 37° C. The increase in absorbance, reflecting VAP-1 SSAO activity, was measured at 490 nm. Inhibition was presented as percent inhibition compared to control after correcting for background absorbance and IC50 values calculated using GraphPad Prism.

Total MAO = assay: Total rat MAO activity (rat liver mitochondrial preparation, tyramine substrate); type: biochemical
Description: Rat MAO was prepared from rat liver by rinsing the 1 g liver sample several times in 14 ml KCl-EDTA-solution to remove all blood. Then 1 g liver sample was homogenized in 4 ml ice-cold potassium phosphate buffer (0.1 M, pH 7.4) with an Ultra-Turrax homogenizer (setting 11 000 rpm, 4×10 s). After centrifugation at 500 g for 10 min at 4° C. the supernatant was carefully withdrawn and was centrifuged at 12 300 g for 15 min at 4° C. The supernatant was discharged and sedimented mitochondria were resuspended in 4 ml fresh phosphate buffer and centrifuged as previously. The mitochondria were suspended in 4 ml phosphate buffer and homogenized with an Ultra-Turrax homogenizer (setting 11 000 rpm, 2×10 s). Mitochondrial preparate was aliquoted and stored at −70° C. Total MAO activity was measured in a similar way as for VAP-1 SSAO except that SSAO enzyme was replaced by MAO enzyme. To each well was added a predetermined amount of inhibitor if required. The amount of inhibitor varied in each assay but was generally at a final concentration of between 10 nM and 800 μM. Controls lacked inhibitor. The inhibitor was in a total volume of 20 μl in water. The following reagents were then added. 0.2 M potassium phosphate buffer pH 7.6 for a total reaction volume of 200 μl, 50 μl of freshly made chromogenic solution (as above) and 50 μl of MAO preparation (or needed amount of MAO). The plates were incubated for 30 min at 37° C. and the background absorbance measured at 490 nm using a Wallac Victor II multilabel counter. To initiate the enzyme reaction 20 μl of 5 mM tyramine (final concentration 0.5 mM) was added and the plate incubated for 1 h at 37° C. The increase in absorbance, reflecting MAO activity, was measured at 490 nm. Inhibition was presented as percent inhibition compared to control after correcting for background absorbance and IC50 values calculated using GraphPad Prism. Clorgyline and pargyline (inhibitors of MAO-A and -B respectively) at 0.5 μM were added to some wells as positive controls for MAO inhibition.

SMILES | melting point | IC50 [1] | Total MAO Inhibitory activity (%) (Total MAO; at 100 μM) | Total MAO Inhibitory activity (%) (Total MAO; at 250 μM) | Total MAO Inhibitory activity (%) (Total MAO; at 50 μM)
COc1ccc(Nc2cc(=O)n(-c3ccc(Cl)cc3)nc2-c2nc[nH]n2)cc1 [Compound 57, 2-(4-chlorophenyl)-5-[(4-methoxyphenyl)amino]-6-(1H-1,2,4-triazol-3-yl)-3(2H)-pyridazinone] | 251 to 252 °C | 44 nM | 5% |  | 
CN(C)c1ccc(Nc2cc(=O)n(-c3ccc(Cl)cc3)nc2-c2nc[nH]n2)cc1 [Compound 65] | 276 to 279 °C | 63 nM |  | 8% | 
O=c1cc(Nc2ccc(N3CCCCC3)cc2)c(-c2nc[nH]n2)nn1-c1ccc(Cl)cc1 [Compound 62] | 240 to 242 °C | 280 nM |  | 21% | 
O=c1cc(Oc2ccccc2)c(-c2ccc(F)cc2)nn1-c1ccccc1 [Compound 22] | 146 to 148 °C | ~60000 nM | 0% |  | 
CCOc1cc(=O)n(-c2ccccc2)nc1-c1nc[nH]n1 [Compound 36] | 195 to 197 °C | 16000 nM | 3% |  | 
COc1ccc(Oc2cc(=O)n(-c3ccccc3)nc2-c2nc[nH]n2)cc1 [Compound 14] | 253 to 257 °C | 370 nM | 0% |  | 
COc1cccc(-n2nc(-c3nc[nH]n3)c(Oc3ccccc3)cc2=O)c1 [Compound 27] | 253 to 254 °C | 2000 nM | 3% |  | 
O=c1cc(Oc2ccccc2)c(-c2nc[nH]n2)nn1-c1cccc(F)c1 [Compound 46] | 262 to 264 °C | 340 nM | 9% |  | 
C#CCNc1cc(=O)n(-c2ccc(Cl)cc2)nc1-c1nc[nH]n1 [Compound 75] | 252 to 254 °C | 220 nM |  |  | 0%
O=c1cc(Oc2ccccc2)c(-c2nc[nH]n2)nn1-c1ccc(Cl)cc1 [Compound 25] | 246 to 247 °C | 350 nM | 0% |  | 
O=c1cc(Nc2cccnc2)c(-c2nc[nH]n2)nn1-c1ccccc1 [Compound 52] | 172 to 174 °C | 3500 nM | 9% |  | 
O=c1cc(Nc2ccc(N3CCOCC3)cc2)c(-c2nc[nH]n2)nn1-c1ccc(Cl)cc1 [Compound 74] | 248 to 250 °C | 100 nM |  |  | 0%
